Each block holds one compound with its values, some of them ahead of it. Calls of active or inactive are those of the source.
How the values were obtained:
[1] = molecular target: T1, RNA-binding protein pos-1 (Caenorhabditis elegans, UniProt G5EF15); experiment: inhibitors of POS-1/mex-3 RNA binding, dose response, biochemical, fluorescence polarization (AID 1964);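 also: purified POS-1 fused to maltose binding protein made in E. coli; potency of compounds blocking POS-1 binding to fluorescent RNA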
T1 sequence (G5EF15 whole entry): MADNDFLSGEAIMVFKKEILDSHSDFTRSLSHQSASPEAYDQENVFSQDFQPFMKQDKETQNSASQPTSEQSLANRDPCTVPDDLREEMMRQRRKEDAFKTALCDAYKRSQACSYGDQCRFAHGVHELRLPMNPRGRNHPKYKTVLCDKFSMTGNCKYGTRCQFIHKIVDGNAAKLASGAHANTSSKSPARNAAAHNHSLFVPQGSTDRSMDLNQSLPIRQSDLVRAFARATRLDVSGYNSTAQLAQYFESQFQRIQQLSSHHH

[2] = molecular target: T2, Zinc finger protein mex-5 (Caenorhabditis elegans, UniProt Q9XUB2); experiment: MEX-5/TCR-2 RNA interaction inhibitors, dose response, biochemical, C. elegans, fluorescence polarization (AID 1960)
T2 sequence (Q9XUB2 whole entry): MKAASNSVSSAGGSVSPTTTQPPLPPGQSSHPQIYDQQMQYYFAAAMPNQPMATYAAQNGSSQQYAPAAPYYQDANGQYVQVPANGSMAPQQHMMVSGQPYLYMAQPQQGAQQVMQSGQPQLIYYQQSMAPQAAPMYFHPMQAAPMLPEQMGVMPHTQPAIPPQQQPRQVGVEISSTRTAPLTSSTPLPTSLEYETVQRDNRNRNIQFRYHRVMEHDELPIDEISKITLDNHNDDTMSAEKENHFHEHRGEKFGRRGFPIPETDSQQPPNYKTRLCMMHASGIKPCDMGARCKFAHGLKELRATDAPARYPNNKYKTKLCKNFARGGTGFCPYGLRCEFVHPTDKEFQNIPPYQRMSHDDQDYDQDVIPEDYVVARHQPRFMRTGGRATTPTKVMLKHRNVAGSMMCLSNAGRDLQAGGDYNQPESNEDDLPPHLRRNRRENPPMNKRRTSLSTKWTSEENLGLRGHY

[3] = inhibitors of intracellular T. cruzi replication, confirmation, NIH3T3 host cells, beta-gal luminescence (AID 2044); type: functional, cell-based;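 also: intracellular parasites grown in NIH/3T3 mouse fibroblasts as host cells; luminescent beta-galactosidase reporter signal from transgenic T. cruzi replicating inside host cells; inhibitors lower the luminescence signal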
[4] = cytotoxicity toward NIH3T3 fibroblasts, dose response, counter-screen, cell-based, ATP luminescence, mouse fibroblasts (AID 2010); type: functional;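 also: cells exposed to compound for about 90 hours before reading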
[5] = molecular target: T3, Intestinal-type alkaline phosphatase (Mus musculus, UniProt P24822); experiment: PubChem AID 488874; type: functional
[6] = molecular target: T4, Intestinal-type alkaline phosphatase (Homo sapiens, UniProt P09923); experiment: human IAP inhibitors, dose response, biochemical, luminescent, uHTS hits, set 2 (AID 488793); type: functional
[7] = molecular target: T4, Intestinal-type alkaline phosphatase; experiment: Dose Response confirmation of uHTS hits from a small molecule inhibitors of human intestinal alkaline phosphatase via a luminescent assay. [Related pubchem assays (depositor defined):AID2544, AID2574]; type: functional
[8] = molecular target: T5, Alkaline phosphatase, tissue-nonspecific isozyme (Homo sapiens, UniProt P05186); experiment: inhibition of tissue-nonspecific alkaline phosphatase – biochemical, dose response (AID 488882); type: functional
T5 sequence (P05186 whole entry): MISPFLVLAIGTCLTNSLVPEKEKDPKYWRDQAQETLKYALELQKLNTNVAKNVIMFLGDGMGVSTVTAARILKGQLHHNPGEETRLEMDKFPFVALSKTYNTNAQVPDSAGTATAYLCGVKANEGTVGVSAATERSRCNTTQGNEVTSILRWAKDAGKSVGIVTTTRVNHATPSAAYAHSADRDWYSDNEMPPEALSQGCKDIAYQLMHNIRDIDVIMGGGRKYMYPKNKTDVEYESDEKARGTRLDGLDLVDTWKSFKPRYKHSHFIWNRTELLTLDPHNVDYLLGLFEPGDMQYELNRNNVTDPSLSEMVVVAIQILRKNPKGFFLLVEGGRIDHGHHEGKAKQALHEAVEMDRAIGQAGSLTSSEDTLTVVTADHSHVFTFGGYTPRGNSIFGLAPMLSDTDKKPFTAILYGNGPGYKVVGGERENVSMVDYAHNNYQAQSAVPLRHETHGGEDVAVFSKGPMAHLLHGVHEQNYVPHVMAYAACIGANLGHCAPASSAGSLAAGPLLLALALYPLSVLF

[9] = tested on: INS1; experiment: beta cell apoptosis inhibitors, cytokine rescue, dose response, luminescence, retest (AID 449756); type: functional, cell-based; details: Rattus norvegicus;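 also: cell death triggered by IL-1 beta plus TNF-alpha plus IFN-gamma mixture; protective hits raise ATP signal compared with cytokine alone wells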
[10] = molecular target: T6, DNA repair and recombination protein RAD54-like (Homo sapiens, UniProt Q92698); experiment: inhibitors of human RAD54 branch migration, confirmation, biochemical, fluorescence, cherry-picked samples, dose series (AID 651657); type: functional
T6 sequence (Q92698 whole entry): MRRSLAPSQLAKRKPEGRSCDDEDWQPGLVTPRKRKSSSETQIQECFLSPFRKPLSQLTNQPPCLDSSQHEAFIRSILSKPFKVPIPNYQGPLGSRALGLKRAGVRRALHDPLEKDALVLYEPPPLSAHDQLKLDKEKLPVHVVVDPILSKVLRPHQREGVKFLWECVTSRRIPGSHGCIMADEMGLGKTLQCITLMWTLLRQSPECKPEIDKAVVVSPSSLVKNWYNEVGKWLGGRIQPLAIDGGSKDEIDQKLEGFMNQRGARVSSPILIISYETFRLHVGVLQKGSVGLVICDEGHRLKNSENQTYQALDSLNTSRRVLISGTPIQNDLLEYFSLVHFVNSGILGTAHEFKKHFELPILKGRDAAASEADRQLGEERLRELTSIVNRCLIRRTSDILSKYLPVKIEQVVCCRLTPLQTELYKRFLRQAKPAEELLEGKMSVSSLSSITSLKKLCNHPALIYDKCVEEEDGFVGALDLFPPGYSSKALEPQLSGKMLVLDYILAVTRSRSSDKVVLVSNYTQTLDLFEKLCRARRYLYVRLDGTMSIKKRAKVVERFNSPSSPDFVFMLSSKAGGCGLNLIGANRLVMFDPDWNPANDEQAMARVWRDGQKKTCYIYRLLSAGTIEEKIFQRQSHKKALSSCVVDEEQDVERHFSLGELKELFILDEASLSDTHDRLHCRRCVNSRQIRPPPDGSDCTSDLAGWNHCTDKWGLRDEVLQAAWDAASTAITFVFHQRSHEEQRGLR

[11] = molecular target: SWI/SNF-related matrix-associated actin-dependent regulator of chromatin subfamily A member 2 (Homo sapiens, UniProt P51531); experiment: Luminescence-based cell-based high throughput dose response assay to identify activators of the function of SWI/SNF related, matrix associated, actin dependent regulator of chromatin, subfamily a, member 2 (SMARCA2, BRM).; type: functional
[12] = Counterscreen for activators of the function of SWI/SNF related, matrix associated, actin dependent regulator of chromatin, subfamily a, member 2 (SMARCA2, BRM): Luminescence-based cell-based high throughput dose response assay to identify non-selective compounds using the VP16 reporter assay.; type: functional
[13] = molecular target: T7, DNA repair protein RAD52 homolog (Homo sapiens, UniProt P43351); type: functional, biochemical
T7 sequence (P43351 whole entry): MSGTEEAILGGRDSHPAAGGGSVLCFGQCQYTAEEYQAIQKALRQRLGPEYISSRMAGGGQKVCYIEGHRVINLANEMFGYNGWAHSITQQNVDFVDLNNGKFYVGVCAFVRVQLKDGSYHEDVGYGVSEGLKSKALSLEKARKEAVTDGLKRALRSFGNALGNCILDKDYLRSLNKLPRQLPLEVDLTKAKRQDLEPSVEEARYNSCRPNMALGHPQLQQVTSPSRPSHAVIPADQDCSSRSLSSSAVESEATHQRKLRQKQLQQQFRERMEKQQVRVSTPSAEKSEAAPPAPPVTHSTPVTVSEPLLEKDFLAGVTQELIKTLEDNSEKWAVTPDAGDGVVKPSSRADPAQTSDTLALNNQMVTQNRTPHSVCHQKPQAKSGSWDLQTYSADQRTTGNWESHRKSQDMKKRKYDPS

[14] = molecular target: T8, CAAX prenyl protease 2 (Saccharomyces cerevisiae S288c, UniProt Q03530); type: biochemical
T8 sequence (Q03530 whole entry): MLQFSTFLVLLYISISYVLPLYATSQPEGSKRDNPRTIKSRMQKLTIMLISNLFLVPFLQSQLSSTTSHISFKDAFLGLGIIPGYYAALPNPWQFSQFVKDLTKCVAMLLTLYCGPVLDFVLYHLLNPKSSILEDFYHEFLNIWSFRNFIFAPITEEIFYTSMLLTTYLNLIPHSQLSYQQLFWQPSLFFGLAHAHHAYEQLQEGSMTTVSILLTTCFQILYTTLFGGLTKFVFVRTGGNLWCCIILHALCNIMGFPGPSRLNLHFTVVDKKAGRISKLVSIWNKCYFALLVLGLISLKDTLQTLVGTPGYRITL

[15] = molecular target: CAAX prenyl protease 1 (Saccharomyces cerevisiae S288c, UniProt P47154); experiment: Ste24 protease inhibitors, dose response, biochemical, S. cerevisiae, plate reader, cherry-pick (AID 488815)
[16] = molecular target: T3, Intestinal-type alkaline phosphatase; experiment: PubChem AID 488785; type: functional
[17] = molecular target: FAD-linked sulfhydryl oxidase ALR (Homo sapiens, UniProt P55789); experiment: inhibitors of human ALR sulfhydryl oxidase, dose response, biochemical, H2O2 detection, luminescence, cherry-pick (AID 493248)
[18] = molecular target: T5, Alkaline phosphatase, tissue-nonspecific isozyme; experiment: TNAP enzyme inhibition by screening hits, dose response, selectivity assay for mouse IAP inhibitor project, biochemical, human TNAP, uHTS hits (AID 488906); type: functional
[19] = molecular target: T4, Intestinal-type alkaline phosphatase; experiment: inhibition of human intestinal alkaline phosphatase – biochemical, dose response (AID 488876); type: functional
[20] = molecular target: Albumin (Bos taurus, UniProt P02769); experiment: Counterscreen for inhibitors of T-cell receptor (TCR)-CD3 interaction: Fluorescence-based biochemical high throughput dose response assay to identify inhibitors of T-cell receptor (TCR)-CD3 interaction using a TAMRA-labeled BSA probe.; type: functional
[21] = molecular target: T9, Ubiquitin-conjugating enzyme E2 N (Homo sapiens, UniProt P61088); type: functional;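 also: Dose-response confirmation in a TR-FRET assay detecting UBC13-driven polyubiquitin chain formation, inhibition measured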
T9 sequence (P61088 whole entry): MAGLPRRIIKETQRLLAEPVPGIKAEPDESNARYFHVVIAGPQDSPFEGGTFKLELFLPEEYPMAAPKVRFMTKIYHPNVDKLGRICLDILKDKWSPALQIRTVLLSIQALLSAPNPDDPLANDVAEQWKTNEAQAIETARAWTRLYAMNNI

[22] = molecular target: Hepatocyte nuclear factor 4-alpha (Homo sapiens, UniProt P41235); type: functional, cell-based;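 also: biochemical luminescence-based dose-response counterscreen measuring inhibition of HNF4 dimerization, run alongside a screen for blockers of ABHD5–perilipin-5 interaction; split luciferase complementation of HNF4 fusion proteins in cell lysate measuring dimerization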
[23] = molecular target: T10, Cytochrome P450 1A2 (Homo sapiens, UniProt P05177);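 also: PubChem cytochrome P450 panel assay, CYP1A2 panel member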
T10 sequence (P05177 whole entry): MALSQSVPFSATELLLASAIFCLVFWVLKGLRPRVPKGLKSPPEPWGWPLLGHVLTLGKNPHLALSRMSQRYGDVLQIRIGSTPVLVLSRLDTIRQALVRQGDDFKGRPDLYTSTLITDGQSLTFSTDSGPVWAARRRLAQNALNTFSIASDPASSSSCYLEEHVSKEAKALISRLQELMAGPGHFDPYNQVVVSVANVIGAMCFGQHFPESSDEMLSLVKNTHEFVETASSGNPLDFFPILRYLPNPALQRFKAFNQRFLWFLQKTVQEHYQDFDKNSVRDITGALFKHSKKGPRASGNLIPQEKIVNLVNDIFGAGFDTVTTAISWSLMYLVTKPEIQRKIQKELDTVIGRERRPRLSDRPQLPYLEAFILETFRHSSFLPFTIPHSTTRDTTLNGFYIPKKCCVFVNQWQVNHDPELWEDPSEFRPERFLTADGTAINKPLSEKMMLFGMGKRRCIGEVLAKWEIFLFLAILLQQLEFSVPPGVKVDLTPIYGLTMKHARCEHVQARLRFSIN

T4 sequence (P09923 whole entry): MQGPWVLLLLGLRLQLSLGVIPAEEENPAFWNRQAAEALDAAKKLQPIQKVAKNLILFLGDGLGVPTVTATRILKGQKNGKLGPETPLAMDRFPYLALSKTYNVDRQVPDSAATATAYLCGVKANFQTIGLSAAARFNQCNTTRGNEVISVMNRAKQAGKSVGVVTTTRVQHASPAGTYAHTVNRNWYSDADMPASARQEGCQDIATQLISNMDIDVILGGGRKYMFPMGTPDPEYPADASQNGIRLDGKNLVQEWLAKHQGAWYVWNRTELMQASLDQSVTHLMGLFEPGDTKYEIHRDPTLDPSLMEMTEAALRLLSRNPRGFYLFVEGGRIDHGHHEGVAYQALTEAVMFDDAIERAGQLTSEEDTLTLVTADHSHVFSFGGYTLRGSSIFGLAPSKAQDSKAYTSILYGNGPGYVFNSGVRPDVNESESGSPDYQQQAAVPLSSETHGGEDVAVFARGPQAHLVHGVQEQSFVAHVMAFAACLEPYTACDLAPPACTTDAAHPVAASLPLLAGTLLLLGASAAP
T3 sequence (P24822 whole entry): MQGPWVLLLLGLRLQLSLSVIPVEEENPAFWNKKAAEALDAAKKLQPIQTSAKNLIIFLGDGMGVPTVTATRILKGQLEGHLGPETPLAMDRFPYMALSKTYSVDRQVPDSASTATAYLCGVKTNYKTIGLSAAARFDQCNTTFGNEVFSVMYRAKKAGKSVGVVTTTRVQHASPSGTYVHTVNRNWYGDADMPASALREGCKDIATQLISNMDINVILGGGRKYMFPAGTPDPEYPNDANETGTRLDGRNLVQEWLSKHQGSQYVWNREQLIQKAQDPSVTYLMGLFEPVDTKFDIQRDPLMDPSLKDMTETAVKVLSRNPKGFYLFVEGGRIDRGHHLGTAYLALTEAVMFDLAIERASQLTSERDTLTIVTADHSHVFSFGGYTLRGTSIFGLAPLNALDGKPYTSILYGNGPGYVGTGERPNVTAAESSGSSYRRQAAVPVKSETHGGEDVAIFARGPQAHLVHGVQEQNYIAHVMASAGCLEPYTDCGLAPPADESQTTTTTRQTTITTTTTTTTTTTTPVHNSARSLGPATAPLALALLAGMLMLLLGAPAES
Chain of FAD-linked sulfhydryl oxidase ALR (P55789 whole entry): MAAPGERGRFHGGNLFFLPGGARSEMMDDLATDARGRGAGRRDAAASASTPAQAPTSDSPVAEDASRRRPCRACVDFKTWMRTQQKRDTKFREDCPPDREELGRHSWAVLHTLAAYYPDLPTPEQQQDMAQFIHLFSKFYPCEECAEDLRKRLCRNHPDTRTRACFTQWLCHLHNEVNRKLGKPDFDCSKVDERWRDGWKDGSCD
Chain of Hepatocyte nuclear factor 4-alpha (P41235 whole entry, the tested form may be a part): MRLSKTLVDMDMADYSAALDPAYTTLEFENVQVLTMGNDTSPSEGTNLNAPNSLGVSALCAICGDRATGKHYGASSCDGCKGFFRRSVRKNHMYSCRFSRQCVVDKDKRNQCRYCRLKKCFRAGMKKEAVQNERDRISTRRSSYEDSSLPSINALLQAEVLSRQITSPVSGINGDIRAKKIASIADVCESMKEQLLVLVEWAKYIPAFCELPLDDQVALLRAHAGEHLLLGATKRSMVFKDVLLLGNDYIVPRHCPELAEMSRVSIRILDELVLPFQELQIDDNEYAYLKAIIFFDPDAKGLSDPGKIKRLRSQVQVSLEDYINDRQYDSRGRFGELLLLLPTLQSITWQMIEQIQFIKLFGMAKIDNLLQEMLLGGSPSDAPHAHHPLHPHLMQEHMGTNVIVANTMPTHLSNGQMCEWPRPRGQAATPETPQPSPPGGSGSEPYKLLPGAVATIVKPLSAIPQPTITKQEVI
Chain of SWI/SNF-related matrix-associated actin-dependent regulator of chromatin subfamily A member 2 (P51531 whole entry): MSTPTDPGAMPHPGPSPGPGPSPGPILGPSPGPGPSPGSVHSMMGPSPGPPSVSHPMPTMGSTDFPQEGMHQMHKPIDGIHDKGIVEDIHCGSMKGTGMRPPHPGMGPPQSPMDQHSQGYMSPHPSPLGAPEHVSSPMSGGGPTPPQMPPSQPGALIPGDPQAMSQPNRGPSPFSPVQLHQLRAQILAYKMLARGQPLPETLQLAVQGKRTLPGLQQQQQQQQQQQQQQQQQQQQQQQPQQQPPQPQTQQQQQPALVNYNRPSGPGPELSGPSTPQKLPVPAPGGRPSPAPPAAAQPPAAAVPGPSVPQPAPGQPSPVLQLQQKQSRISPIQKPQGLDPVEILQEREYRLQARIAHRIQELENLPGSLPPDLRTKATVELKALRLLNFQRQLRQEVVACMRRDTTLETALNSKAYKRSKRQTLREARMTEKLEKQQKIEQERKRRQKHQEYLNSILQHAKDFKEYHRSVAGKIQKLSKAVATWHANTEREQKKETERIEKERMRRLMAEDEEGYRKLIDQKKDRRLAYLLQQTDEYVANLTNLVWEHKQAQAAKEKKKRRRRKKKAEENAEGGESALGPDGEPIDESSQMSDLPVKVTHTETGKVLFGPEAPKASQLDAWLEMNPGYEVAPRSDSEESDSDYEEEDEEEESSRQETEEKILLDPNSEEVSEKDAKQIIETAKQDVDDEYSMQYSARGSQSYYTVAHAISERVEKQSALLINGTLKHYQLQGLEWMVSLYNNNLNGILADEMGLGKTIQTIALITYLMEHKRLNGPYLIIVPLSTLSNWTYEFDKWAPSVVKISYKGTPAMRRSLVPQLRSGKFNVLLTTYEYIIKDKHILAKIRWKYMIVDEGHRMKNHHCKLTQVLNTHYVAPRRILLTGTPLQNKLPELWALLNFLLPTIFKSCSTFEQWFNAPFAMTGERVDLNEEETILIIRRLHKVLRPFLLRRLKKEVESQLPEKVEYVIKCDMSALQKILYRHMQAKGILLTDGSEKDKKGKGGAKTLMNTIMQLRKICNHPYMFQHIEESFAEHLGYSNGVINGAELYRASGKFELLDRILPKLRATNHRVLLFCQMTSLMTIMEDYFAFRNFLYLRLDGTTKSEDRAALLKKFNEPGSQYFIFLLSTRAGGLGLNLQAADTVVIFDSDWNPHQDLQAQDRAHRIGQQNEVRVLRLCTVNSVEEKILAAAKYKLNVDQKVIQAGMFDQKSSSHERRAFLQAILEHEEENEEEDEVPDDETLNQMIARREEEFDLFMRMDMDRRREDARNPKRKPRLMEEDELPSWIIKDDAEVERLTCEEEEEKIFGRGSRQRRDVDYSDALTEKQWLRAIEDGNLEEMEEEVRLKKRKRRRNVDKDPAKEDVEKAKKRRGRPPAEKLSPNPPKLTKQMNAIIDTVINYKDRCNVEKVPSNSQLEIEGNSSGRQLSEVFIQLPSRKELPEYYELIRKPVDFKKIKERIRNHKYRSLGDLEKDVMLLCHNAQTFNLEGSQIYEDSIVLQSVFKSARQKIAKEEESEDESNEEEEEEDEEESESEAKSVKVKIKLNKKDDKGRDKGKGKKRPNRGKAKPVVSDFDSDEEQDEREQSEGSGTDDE
Chain of CAAX prenyl protease 1 (P47154 whole entry): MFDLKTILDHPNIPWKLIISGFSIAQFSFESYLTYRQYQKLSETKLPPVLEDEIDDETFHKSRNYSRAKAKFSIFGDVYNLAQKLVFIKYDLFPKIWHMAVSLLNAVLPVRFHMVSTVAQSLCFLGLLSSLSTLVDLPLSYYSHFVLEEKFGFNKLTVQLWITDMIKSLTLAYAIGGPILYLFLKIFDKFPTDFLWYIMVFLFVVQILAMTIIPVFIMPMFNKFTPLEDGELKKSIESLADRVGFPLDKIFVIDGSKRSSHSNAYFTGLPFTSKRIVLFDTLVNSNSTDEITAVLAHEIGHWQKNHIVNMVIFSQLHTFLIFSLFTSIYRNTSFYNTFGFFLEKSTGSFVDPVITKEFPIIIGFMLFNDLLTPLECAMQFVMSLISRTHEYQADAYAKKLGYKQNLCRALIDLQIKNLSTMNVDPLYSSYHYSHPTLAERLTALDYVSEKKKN
Chain of Albumin (P02769 whole entry): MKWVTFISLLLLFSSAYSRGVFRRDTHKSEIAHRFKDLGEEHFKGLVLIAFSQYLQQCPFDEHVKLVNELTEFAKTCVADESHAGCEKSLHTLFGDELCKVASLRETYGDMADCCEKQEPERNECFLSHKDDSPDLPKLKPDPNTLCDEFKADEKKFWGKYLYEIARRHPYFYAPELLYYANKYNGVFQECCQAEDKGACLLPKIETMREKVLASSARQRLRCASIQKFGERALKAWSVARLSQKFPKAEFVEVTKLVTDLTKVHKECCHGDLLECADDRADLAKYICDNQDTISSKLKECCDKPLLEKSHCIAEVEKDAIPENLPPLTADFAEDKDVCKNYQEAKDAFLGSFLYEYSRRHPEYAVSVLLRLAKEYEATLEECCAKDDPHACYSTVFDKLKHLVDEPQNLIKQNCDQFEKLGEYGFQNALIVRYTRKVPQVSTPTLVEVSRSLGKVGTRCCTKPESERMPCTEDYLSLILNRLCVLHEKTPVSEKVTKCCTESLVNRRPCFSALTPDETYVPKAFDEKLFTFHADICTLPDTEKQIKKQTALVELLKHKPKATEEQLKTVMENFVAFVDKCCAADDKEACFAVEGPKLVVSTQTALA

SMILES: COc1ccc2nc3cc(Cl)ccc3c(Nc3cc(CN4CCCC4)c(O)c(CN4CCCC4)c3)c2n1
EC50 [1]: 32.2 µM (active)
EC50 [2]: 22 µM (active)
EC50 [3]: 0.587 µM (active)
EC50 [4]: > 16 µM (not active)
IC50 [5]: 40.5 µM (active)
IC50 [6]: 10.5 µM (active)
IC50 [7]: 5.61 µM (active)
IC50 [8]: 20.3 µM (active)
AC50 [9]: 3.38 µM (active)
AC50 [10]: 0.791 µM (active)
EC50 [11]: > 3.38 µM (active)
EC50 [12]: > 91.2 µM (inactive)
AC50 [13]: < 0.351 µM (active)

AC50 [14]: 23.3 µM (active)
AC50 [15]: 12.7 µM (active)
SMILES: COc1ccc(-c2cc(C(F)(F)F)nc(SCC(=O)N(C)Cc3cn(C)nc3C)n2)cc1OC

EC50 [1]: 24.8 µM (active)
EC50 [2]: 4.24 µM (active)
IC50 [16]: 5.77 µM (active)
AC50 [17]: < 0.005 µM (active)
IC50 [18]: > 100 µM (inactive)
IC50 [19]: > 100 µM (inactive)
IC50 [20]: > 94 µM (inactive)
SMILES: O=C(N/N=C/c1cccnc1)c1cc(O)c(O)c(O)c1

SMILES: CN1[C@@H]2CC[C@H]1C[C@@H](OC1c3ccccc3CCc3ccccc31)C2 [DEPTROPINE]
IC50 [21]: > 20 µM (inactive)
IC50 [22]: 10 µM (inactive)
AC50 [23]: inactive

From ChEMBL document CHEMBL1201862, “PubChem BioAssay data set” (2004)
